The record followed here is ChEMBL document CHEMBL1142681, “Three-dimensional structure-activity relationships of nonsteroidal ligands in complex with androgen receptor ligand-binding domain” (J Med Chem, 2005).

The structures appear in SMILES notation.

The target of the assay is T1, Androgen receptor (Rattus norvegicus, UniProt P15207).
T1 sequence (P15207 whole entry): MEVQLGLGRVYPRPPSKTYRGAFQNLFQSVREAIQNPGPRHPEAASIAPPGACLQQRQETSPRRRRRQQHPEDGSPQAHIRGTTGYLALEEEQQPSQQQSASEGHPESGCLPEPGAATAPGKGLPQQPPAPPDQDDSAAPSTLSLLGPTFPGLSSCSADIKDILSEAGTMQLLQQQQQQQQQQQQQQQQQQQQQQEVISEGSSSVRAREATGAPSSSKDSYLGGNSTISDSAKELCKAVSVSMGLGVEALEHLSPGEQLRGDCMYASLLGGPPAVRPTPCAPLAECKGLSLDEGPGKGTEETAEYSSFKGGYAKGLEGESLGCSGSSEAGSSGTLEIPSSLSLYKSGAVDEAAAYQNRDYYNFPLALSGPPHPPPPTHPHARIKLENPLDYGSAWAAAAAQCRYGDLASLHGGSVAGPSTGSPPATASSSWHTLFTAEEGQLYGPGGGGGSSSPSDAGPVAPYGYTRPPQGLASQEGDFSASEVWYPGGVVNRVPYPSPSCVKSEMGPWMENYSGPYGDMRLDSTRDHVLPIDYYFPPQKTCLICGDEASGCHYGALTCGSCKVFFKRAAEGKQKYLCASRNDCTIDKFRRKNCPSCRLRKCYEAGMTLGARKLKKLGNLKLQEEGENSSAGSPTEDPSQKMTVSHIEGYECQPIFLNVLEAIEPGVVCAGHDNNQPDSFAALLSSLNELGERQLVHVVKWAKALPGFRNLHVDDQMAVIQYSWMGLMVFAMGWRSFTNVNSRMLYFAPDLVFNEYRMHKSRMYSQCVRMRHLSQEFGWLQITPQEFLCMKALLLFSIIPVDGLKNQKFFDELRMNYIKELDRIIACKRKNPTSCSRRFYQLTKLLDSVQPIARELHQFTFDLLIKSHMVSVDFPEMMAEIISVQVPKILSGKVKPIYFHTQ
Description: Inhibition of [3H]mibolerone binding to cytosolic androgen receptor of rat ventral prostate
Compound `CC(=O)Nc1ccc(SC[C@@](C)(O)C(=O)Nc2ccc(C#N)c(C(F)(F)F)c2)cc1` had an inhibition constant (Ki) of 1380 nM.
For the compound `CCC(=O)Nc1ccc(SC[C@](C)(O)C(=O)Nc2ccc(C#N)c(C(F)(F)F)c2)cc1`, the Ki is 26.9 nM.
For `C[C@](O)(CS(=O)(=O)c1ccc(NC(=O)C(F)(F)F)cc1)C(=O)Nc1ccc([N+](=O)[O-])c(C(F)(F)F)c1` the value was 6.17 nM; for `C[C@](O)(CBr)C(=O)Nc1ccc([N+](=O)[O-])cc1`, 33.1 nM; for `C[C@](O)(CS(=O)(=O)c1ccc(NS(C)(=O)=O)cc1)C(=O)Nc1ccc([N+](=O)[O-])c(C(F)(F)F)c1`, 15.1 nM.
In the case of `Cc1cc(=O)oc2cc(NC(=O)[C@@](C)(O)CSc3ccc(F)cc3)ccc12`, the affinity corresponds to a Ki of 91.2 nM.
For `CCC(=O)N(C(=O)CC)c1ccc(SC[C@](C)(O)C(=O)Nc2ccc(C#N)c(C(F)(F)F)c2)cc1` the value was 661 nM; for `C[C@](O)(CSc1ccc(N)cc1)C(=O)Nc1ccc([N+](=O)[O-])c(C(F)(F)F)c1`, 57.5 nM.
With `C[C@](O)(CBr)C(=O)Nc1ccc2c(C(F)(F)F)cc(=O)oc2c1` the figure was 132 nM; with `C[C@](O)(CSc1ccc(NS(C)(=O)=O)cc1)C(=O)Nc1ccc([N+](=O)[O-])c(C(F)(F)F)c1`, 50.1 nM.
With `C[C@](O)(CS(=O)(=O)c1ccc(NC(=O)CCl)cc1)C(=O)Nc1ccc([N+](=O)[O-])c(C(F)(F)F)c1` the figure was 6.92 nM; with `C[C@@](O)(CBr)C(=O)Nc1ccc2c(C(F)(F)F)cc(=O)oc2c1`, 245 nM; with `CC(=O)N(C(C)=O)c1ccc(SC[C@](C)(O)C(=O)Nc2ccc(C#N)c(C(F)(F)F)c2)cc1`, 105 nM.
On to `C[C@@](O)(CSc1ccc(NC(=O)CCl)cc1)C(=O)Nc1ccc([N+](=O)[O-])c(C(F)(F)F)c1`, for which the inhibitory constant (Ki) is 97.7 nM. The Ki values of the last two compounds are within 1.5-fold of each other.
For `C[C@@](O)(CSc1ccc(N)cc1)C(=O)Nc1ccc([N+](=O)[O-])c(C(F)(F)F)c1` the value was 525 nM.
With `C[C@](O)(CSc1ccc(NC(=O)CCl)cc1)C(=O)Nc1ccc([N+](=O)[O-])c(C(F)(F)F)c1` the figure was 3.31 nM; with `C[C@](O)(CSc1ccc(N)cc1)C(=O)Nc1ccc2c(C(F)(F)F)cc(=O)oc2c1`, 288 nM.
With `C[C@](O)(CBr)C(=O)Nc1ccc([N+](=O)[O-])cc1[N+](=O)[O-]` the figure was 1170 nM; with `CC(=O)Nc1ccc(SC[C@](C)(O)C(=O)Nc2ccc([N+](=O)[O-])c(C(F)(F)F)c2)cc1`, 2.88 nM.
On to `C[C@](O)(CSc1ccc(NC(=O)C(F)(F)F)cc1)C(=O)Nc1ccc([N+](=O)[O-])c(C(F)(F)F)c1`, for which the Ki is 2.57 nM.
With `C[C@@](O)(CS(=O)(=O)c1ccc(NC(=O)CCl)cc1)C(=O)Nc1ccc([N+](=O)[O-])c(C(F)(F)F)c1` the figure was 234 nM; with `C[C@](O)(CBr)C(=O)Nc1ccc(N)c(C(F)(F)F)c1`, 81.3 nM; with `C[C@](O)(CS(=O)(=O)c1ccc(N)cc1)C(=O)Nc1ccc(C#N)c(C(F)(F)F)c1`, 32.4 nM.
Consider `CC(=O)Nc1ccc(SC[C@](C)(O)C(=O)Nc2ccc(C#N)c(C(F)(F)F)c2)cc1` [ACETOTHIOLUTAMIDE], for which the affinity, expressed as Ki, was 4.9 nM.
For `C[C@](O)(CSc1ccccc1)C(=O)Nc1ccc2c(C(F)(F)F)cc(=O)oc2c1`, the Ki was 132 nM. Compared with the last compound, the Ki is about 27-fold higher.
For `CC(=O)Nc1ccc(S(=O)(=O)C[C@@](C)(O)C(=O)Nc2ccc([N+](=O)[O-])c(C(F)(F)F)c2)cc1` the value was 589 nM; for `CC(=O)Nc1ccc(SC[C@@](C)(O)C(=O)Nc2ccc([N+](=O)[O-])c(C(F)(F)F)c2)cc1`, 123 nM.
Consider `C[C@](O)(CSc1ccc(N=C=S)cc1)C(=O)Nc1ccc2c(C(F)(F)F)cc(=O)oc2c1`, for which the affinity corresponds to a Ki of 135 nM.
With `CC(=O)Nc1ccc(S(=O)(=O)C[C@](C)(O)C(=O)Nc2ccc(C#N)c(C(F)(F)F)c2)cc1` the figure was 15.8 nM.

Broadly, the Ki is the dissociation constant of the complex between target and ligand, obtained from inhibition or displacement.
